Measurements: PubChem BioAssay AID330 (DTP/NCI, 2004)
Where “and” joins values, the source holds several entries; their conditions need not be identical. Equal entries are not always repeated. Inconclusive results and toxic doses are left out. How the source made its calls: active means survival T/C of 150% or more; inactive means T/C below 125% in these data. Peptide text beside a SMILES is read from it.

Tested on: P388 leukemia ip, CD2F1 mice, survival T/C
Experiment: NCI In Vivo Anticancer Drug Screen. Data for tumor model P388 Leukemia (intraperitoneal) in CD2F1 (CDF1) mice
Conditions: endpoint: median survival time, higher = longer survival
Method in brief: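 Mice carrying the transplanted tumor received test compound or vehicle. Survival was recorded in each group, and the value is the treated-group measurement divided by that of the vehicle-treated control group.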

[1] = dose: 50.0 mg/kg/injection, schedule: Q01DX005 (ip), vehicle: Klucel (hydroxypropylcellulose) (HPC)
[2] = dose: 100.0 mg/kg/injection, schedule: Q01DX005 (ip), vehicle: Klucel (hydroxypropylcellulose) (HPC)
[3] = dose: 200.0 mg/kg/injection, schedule: Q01DX005 (ip), vehicle: Klucel (hydroxypropylcellulose) (HPC)
[4] = dose: 25.0 mg/kg/injection, schedule: Q01DX005 (ip), vehicle: Klucel (hydroxypropylcellulose) (HPC)
[5] = dose: 50.0 mg/kg/injection, schedule: Q01DX009 (ip), vehicle: saline
[6] = dose: 100.0 mg/kg/injection, schedule: Q01DX009 (ip), vehicle: saline
[7] = dose: 200.0 mg/kg/injection, schedule: Q01DX009 (ip), vehicle: saline
[8] = dose: 100.0 mg/kg/injection, schedule: Q04DX002 (ip), vehicle: saline with Tween-80
[9] = dose: 200.0 mg/kg/injection, schedule: Q04DX002 (ip), vehicle: saline with Tween-80
[10] = dose: 400.0 mg/kg/injection, schedule: Q04DX002 (ip), vehicle: saline with Tween-80
[11] = dose: 100.0 mg/kg/injection, schedule: Q04DX003 (ip), vehicle: Klucel (hydroxypropylcellulose) (HPC)
[12] = dose: 200.0 mg/kg/injection, schedule: Q04DX003 (ip), vehicle: Klucel (hydroxypropylcellulose) (HPC)
[13] = dose: 100.0 mg/kg/injection, schedule: Q01DX001 (ip), vehicle: saline with Tween-80
[14] = dose: 200.0 mg/kg/injection, schedule: Q01DX001 (ip), vehicle: saline with Tween-80
[15] = dose: 50.0 mg/kg/injection, schedule: Q01DX005 (ip), vehicle: saline with Tween-80

Measured: T/C

COC1(OC)CCN2OC(CO)CC21 (stereo not drawn)
inactive: dose: 25.0 mg/kg/injection, schedule: Q04DX003 (ip), vehicle: saline with Tween-80 103 % of control | dose: 50.0 mg/kg/injection, schedule: Q04DX003 (ip), vehicle: saline with Tween-80 100 % of control | dose: 100.0 mg/kg/injection, schedule: Q04DX003 (ip), vehicle: saline with Tween-80 100 % of control and 101 % of control

COc1cccc(C(=O)c2ccc(OC)cc2C(=O)O)c1
inactive: [1] 95 % of control | [2] 101 % of control | [3] 97 % of control

CCCNc1ccnc(F)n1
inactive: dose: 12.5 mg/kg/injection, schedule: Q01DX005 (ip), vehicle: Klucel (hydroxypropylcellulose) (HPC) 100 % of control | [4] 102 % of control | [1] 106 % of control | [2] 105 % of control

CCOC(=O)N(C)C
inactive: dose: 25.0 mg/kg/injection, schedule: Q01DX009 (ip), vehicle: saline 89 % of control | [5] 91 % of control | [6] 99 % of control | [7] 105 % of control

CC(=O)Oc1c(C)c(OC(C)=O)c2c(c1C(C)=O)OC1=CC(O)=C(C(C)=O)C(=O)C12C (stereo not drawn)
inactive: dose: 6.25 mg/kg/injection, schedule: Q01DX009 (ip), vehicle: gum acacia 98 % of control and 102 % of control | dose: 12.5 mg/kg/injection, schedule: Q01DX009 (ip), vehicle: gum acacia 104 % of control and 105 % of control | dose: 25.0 mg/kg/injection, schedule: Q01DX009 (ip), vehicle: gum acacia 100 % of control and 102 % of control | dose: 50.0 mg/kg/injection, schedule: Q01DX009 (ip), vehicle: gum acacia 102 % of control and 110 % of control | dose: 100.0 mg/kg/injection, schedule: Q01DX009 (ip), vehicle: gum acacia 113 % of control and 115 % of control | [8] 97 % of control | [9] 102 % of control | [10] 101 % of control

Cc1ccc(C)n1-c1ccsc1C(=O)NNC(=O)C(Cl)Cl
inactive: dose: 7.5 mg/kg/injection, schedule: Q01DX005 (ip), vehicle: Klucel (hydroxypropylcellulose) (HPC) 100 % of control | dose: 15.0 mg/kg/injection, schedule: Q01DX005 (ip), vehicle: Klucel (hydroxypropylcellulose) (HPC) 106 % of control | dose: 30.0 mg/kg/injection, schedule: Q01DX005 (ip), vehicle: Klucel (hydroxypropylcellulose) (HPC) 99 % of control

CCOC(=O)c1nc(C)nc(N)c1C
inactive: dose: 12.5 mg/kg/injection, schedule: Q01DX009 (ip), vehicle: water 102 % of control | dose: 25.0 mg/kg/injection, schedule: Q01DX009 (ip), vehicle: water 91 % of control | dose: 50.0 mg/kg/injection, schedule: Q01DX009 (ip), vehicle: water 93 % of control | dose: 100.0 mg/kg/injection, schedule: Q01DX009 (ip), vehicle: water 100 % of control | dose: 200.0 mg/kg/injection, schedule: Q01DX009 (ip), vehicle: water 100 % of control

N#CC12CCCCC1CCC1(C2)OCCO1 (stereo not drawn)
inactive: dose: 50.0 mg/kg/injection, schedule: Q01DX009 (ip), vehicle: Klucel (hydroxypropylcellulose) (HPC) 111 % of control | dose: 100.0 mg/kg/injection, schedule: Q01DX009 (ip), vehicle: Klucel (hydroxypropylcellulose) (HPC) 100 % of control | dose: 200.0 mg/kg/injection, schedule: Q01DX009 (ip), vehicle: Klucel (hydroxypropylcellulose) (HPC) 108 % of control

O=C1Cc2ccccc2C(c2ccc(Cl)cc2Cl)N1 (stereo not drawn)
inactive: [5] 98 % of control | [6] 98 % of control | [7] 100 % of control

CCSCCCCSCC
inactive: dose: 50.0 mg/kg/injection, schedule: Q01DX009 (ip), vehicle: saline with Tween-80 100 % of control | dose: 100.0 mg/kg/injection, schedule: Q01DX009 (ip), vehicle: saline with Tween-80 109 % of control | dose: 200.0 mg/kg/injection, schedule: Q01DX009 (ip), vehicle: saline with Tween-80 113 % of control

CC(=O)Nc1ccccc1CO
inactive: [4] 97 % of control | [1] 100 % of control | [2] 100 % of control | [3] 100 % of control

Brc1ccc2[nH]c3nc(N/N=C/c4cccs4)nnc3c2c1
inactive: [8] 90 % of control | [9] 99 % of control | [10] 106 % of control

COc1ccc2c(c1)c(COC(C)=O)c(C)c[n+]2[O-]
inactive: [1] 100 % of control | [2] 104 % of control | [3] 88 % of control

Cc1oc2c(c(=O)c1C)C1CCC(C2)N1C (stereo not drawn)
inactive: [1] 106 % of control | [2] 97 % of control

O=C1NC2CCCC1C(c1ccccc1Cl)NC2c1ccccc1Cl (stereo not drawn)
inactive: dose: 100.0 mg/kg/injection, schedule: Q04DX003 (ip), vehicle: suspension in saline 98 % of control | dose: 200.0 mg/kg/injection, schedule: Q04DX003 (ip), vehicle: suspension in saline 100 % of control | dose: 400.0 mg/kg/injection, schedule: Q04DX003 (ip), vehicle: suspension in saline 100 % of control

COC(=O)c1cn[nH]c1CC(N)=O
inactive: dose: 60.0 mg/kg/injection, schedule: Q01DX005 (ip), vehicle: saline 100 % of control | dose: 120.0 mg/kg/injection, schedule: Q01DX005 (ip), vehicle: saline 103 % of control | dose: 240.0 mg/kg/injection, schedule: Q01DX005 (ip), vehicle: saline 103 % of control

CCN1c2ccccc2CC(CCN(C(C)C)C(C)C)(C(N)=O)c2ccccc21 (stereo not drawn)
inactive: dose: 25.0 mg/kg/injection, schedule: Q04DX002 (ip), vehicle: saline with Tween-80 95 % of control | dose: 50.0 mg/kg/injection, schedule: Q04DX002 (ip), vehicle: saline with Tween-80 95 % of control | [8] 95 % of control

O=C(O)[C@@H]1CCC(c2ccccc2)=N1
inactive: dose: 50.0 mg/kg/injection, schedule: Q01DX005 (ip), vehicle: distilled water + alcohol 98 % of control | dose: 100.0 mg/kg/injection, schedule: Q01DX005 (ip), vehicle: distilled water + alcohol 98 % of control | dose: 200.0 mg/kg/injection, schedule: Q01DX005 (ip), vehicle: distilled water + alcohol 98 % of control

CCOC(=O)C(C)Oc1ccc(Cn2ccnn2)cc1 (stereo not drawn)
inactive: dose: 60.0 mg/kg/injection, schedule: Q01DX005 (ip), vehicle: saline with Tween-80 98 % of control | dose: 120.0 mg/kg/injection, schedule: Q01DX005 (ip), vehicle: saline with Tween-80 98 % of control | dose: 240.0 mg/kg/injection, schedule: Q01DX005 (ip), vehicle: saline with Tween-80 96 % of control

CC1(C)COC2(C)N(c3ccccc3)C(=O)ON12 (stereo not drawn)
inactive: [1] 100 % of control | [2] 100 % of control | [3] 97 % of control

CCC1(c2ccccc2)CCCC/C1=N/Nc1ccc([N+](=O)[O-])cc1[N+](=O)[O-] (stereo not drawn)
inactive: [11] 91 % of control | [12] 92 % of control | dose: 400.0 mg/kg/injection, schedule: Q04DX003 (ip), vehicle: Klucel (hydroxypropylcellulose) (HPC) 99 % of control

CC(=O)N(C(C)=O)c1cnc2c(nc3cc(C)ccn32)c1C
inactive: [13] 92 % of control | [14] 98 % of control

CC(C)CC(NC(=O)C(NC(=O)C(N)C(C)O)C(C)C)C(=O)O (stereo not drawn) (H-Thr-Val-Leu-OH; configuration not given here)
inactive: [1] 95 % of control | [2] 101 % of control | [3] 104 % of control

O=C1C=C(c2ccccc2)S(=O)(=O)c2ccc(O)cc21
inactive: [15] 121 % of control | dose: 100.0 mg/kg/injection, schedule: Q01DX005 (ip), vehicle: saline with Tween-80 110 % of control

NCC1CC2(Cl)C(Cl)=C(Cl)C1(Cl)C2(Cl)Cl (stereo not drawn)
inactive: dose: 12.5 mg/kg/injection, schedule: Q01DX005 (ip), vehicle: saline with Tween-80 106 % of control | dose: 25.0 mg/kg/injection, schedule: Q01DX005 (ip), vehicle: saline with Tween-80 107 % of control | [15] 107 % of control and 111 % of control

O=S1(=O)C2CCCCC2C2CCCCC21 (stereo not drawn)
inactive: [13] 108 % of control | [14] 106 % of control | dose: 400.0 mg/kg/injection, schedule: Q01DX001 (ip), vehicle: saline with Tween-80 113 % of control

c1ccc(CNCc2ccccc2)cc1
inactive: dose: 50.0 mg/kg/injection, schedule: Q04DX003 (ip), vehicle: Klucel (hydroxypropylcellulose) (HPC) 95 % of control | [11] 95 % of control | [12] 100 % of control
